According to ChEMBL document CHEMBL1131832, “Synthesis and pharmacological activity of diarylindole derivatives. Cytotoxic agents based on combretastatins” (Bioorg Med Chem Lett, 1999):
pIC50: −log10 of the molar value.

Columns and labels:
P388 = experiment: Antineoplastic activity against P-388 (murine lymphoid neoplasm) cell line.; format: functional, cell-based; conditions: Mus musculus
HT-29 = experiment: Antineoplastic activity against HT-29 (human colon adenocarcinoma) cell line.; format: functional, cell-based
A549 = experiment: Antineoplastic activity against A-549 (human lung carcinoma) cell line.; format: functional, cell-based
SK-MEL-28 = experiment: Antineoplastic activity against SK-MEL-28 (human melanoma) cell line.; format: functional, cell-based
RPMI-8226 = experiment: Compound was evaluated for cytostatic activity against the RPMI-8226 leukemia cell line; format: functional; conditions: Homo sapiens
SF-539 = experiment: Compound was evaluated for cytostatic activity against SF-539 CNS cancer cell line; format: functional; conditions: Homo sapiens
HCT-116 = experiment: Compound was evaluated for cytostatic activity against […] colon cancer cell line; format: functional; conditions: Homo sapiens
SF-295 = experiment: Compound was evaluated for cytostatic activity against SF-295 CNS cancer cell line; format: functional; conditions: Homo sapiens
SNB-19 = experiment: Compound was evaluated for cytostatic activity against SNB-19 CNS cancer cell line; format: functional; conditions: Homo sapiens
COLO 205 = experiment: Compound was evaluated for cytostatic activity against COLO 205 colon cancer cell line; format: functional; conditions: Homo sapiens
OVCAR-3 = experiment: Compound was evaluated for cytostatic activity against OVCAR-3 ovarian cancer cell line; format: functional; conditions: Homo sapiens
NCI-H522 = experiment: Compound was evaluated for cytostatic activity against NCI-H522 non-small cell lung cancer cell line; format: functional; conditions: Homo sapiens
HL-60 = experiment: Compound was evaluated for cytostatic activity against the HL-60(TB) leukemia cell line; format: functional; conditions: Homo sapiens
SK-MEL-5 = experiment: Compound was evaluated for cytostatic activity against SK-MEL-5 melanoma cell line; format: functional; conditions: Homo sapiens
[1] = read-out: Log LC50 (the source's name) (converted)

Structure (SMILES) | pIC50 (P388) | pIC50 (HT-29) | pIC50 (A549) | pIC50 (SK-MEL-28) | further results
COc1cc(CCc2ccoc2)cc(OC)c1OC | < 4.00 | < 4.00 | < 4.00 | < 4.00 | –
COc1cc(CC(=O)c2ccco2)cc(OC)c1OC | < 4.00 | < 4.00 | < 4.00 | < 4.00 | –
COc1cc(CC(=O)c2ccc(C)o2)cc(OC)c1OC | 5.06 | 4.76 | 4.76 | 5.06 | –
COc1cc(CC(O)c2ccco2)cc(OC)c1OC (stereo not given) | 4.74 | 4.44 | 4.44 | 4.44 | –
COc1cc(CC(=O)c2ccoc2)cc(OC)c1OC | 5.14 | 5.14 | 5.14 | 5.14 | –
COc1cc(CCc2ccc3ccccc3c2)cc(OC)c1OC | – | – | – | 6.52 | –
COc1cc(CC(O)c2ccc3c(c2)OCO3)cc(OC)c1OC (stereo not given) | < 4.00 | < 4.00 | < 4.00 | < 4.00 | –
COc1ccc2[nH]c(-c3ccco3)c(-c3cc(OC)c(OC)c(OC)c3)c2c1 | 6.15 | 5.88 | 5.88 | – | GI50 (RPMI-8226): 0.0912 µM; CC50 (RPMI-8226; [1]): 75.9 µM; GI50 (SF-539): 0.117 µM; CC50 (SF-539; [1]): 0.933 µM; GI50 (HCT-116): 0.138 µM; CC50 (HCT-116; [1]): 2.51 µM; GI50 (SF-295): 0.138 µM; CC50 (SF-295; [1]): 23.4 µM; GI50 (SNB-19): 0.0229 µM; CC50 (SNB-19; [1]): 0.977 µM; GI50 (COLO 205): 0.186 µM; CC50 (COLO 205; [1]): 0.676 µM; GI50 (OVCAR-3): 0.17 µM; CC50 (OVCAR-3; [1]): 7.24 µM; GI50 (NCI-H522): 0.0759 µM; CC50 (NCI-H522; [1]): 3.39 µM; GI50 (HL-60): 0.0513 µM; CC50 (HL-60; [1]): > 100 µM; GI50 (SK-MEL-5): 0.245 µM; CC50 (SK-MEL-5; [1]): 28.8 µM
COc1ccc2[nH]c(-c3ccc4ccccc4c3)c(-c3cc(OC)c(OC)c(OC)c3)c2c1 | 5.95 | 5.65 | 5.95 | 5.95 | –
COc1cc(CCc2ccco2)cc(OC)c1OC | 4.72 | 4.72 | 4.72 | 4.72 | –
COc1cc(CC(=O)c2ccc3ccccc3c2)cc(OC)c1OC | 4.82 | 4.52 | 4.82 | 4.82 | –
COc1ccc2[nH]c(-c3ccc4c(c3)OCO4)c(-c3cc(OC)c(OC)c(OC)c3)c2c1 | 5.64 | 5.20 | 5.20 | 5.20 | –
COc1ccc2[nH]c(-c3ccoc3)c(-c3cc(OC)c(OC)c(OC)c3)c2c1 | 5.49 | 5.49 | 5.49 | 5.49 | –
COc1cc(CC(O)c2ccc3ccccc3c2)cc(OC)c1OC (stereo not given) | 5.53 | 5.53 | 5.53 | 5.53 | –
COc1cc(CC(O)c2ccoc2)cc(OC)c1OC (stereo not given) | 4.44 | 4.14 | 4.14 | 4.14 | –
COc1ccc2[nH]c(-c3ccc(C)o3)c(-c3cc(OC)c(OC)c(OC)c3)c2c1 | 5.29 | 5.19 | 5.29 | 5.29 | –
COc1cc(CCc2ccc(C)o2)cc(OC)c1OC | 5.14 | 5.14 | 5.14 | 5.14 | –
COc1cc(CCc2ccc3c(c2)OCO3)cc(OC)c1OC | – | – | – | 5.20 | –
